Tests used:
[1] = system: Primary Rat Hippocampal Cells; assay: Neurite outgrowth assay in primary rat hippocampal cells; format: cell-based; settings: MAP-2 immunofluorescence, embryonic day 18 rat hippocampal cells, 7 days in culture
Procedure: Hippocampal cells were dissected from the brains of embryonic day 18 rat pups and dissociated with trypsin (1 mg/mL) and trituration. Cells were seeded at 30,000 cells/well in 96-well plates filled with 100 μL MEM and 10% FBS. At 7 days in culture, cells were fixed with 4% paraformaldehyde and immuno-fluorescence is performed.
(§1) Cultures were incubated with normal horse serum (1:50; Vector Labs) or about 20 min, rinsed and then incubated with primary antibody, microtubule associated-protein 2 (anti-mouse MAP-2; 1:1000; Chemicon) for about 2 h at about RT. Following primary antibody, cultures were rinsed and incubated with fluorescein anti-mouse IgG (rat absorbed; 1:50; Vector Labs) for about 1 h. After fluorescein incubation, the cultures were rinsed and read in PBS on a fluorescent plate reader (excitation: 485 nm; emission: 530 nm). A compound was regarded as active if the neurite outgrowth response is greater than the mean DMSO-treated control response on the same plate. The response to test compound was reported as percent of DMSO-treated control. The signal-to-noise separation is consistent: the fluorescence from DMSO control wells is at least twofold greater than blank wells.

[2] = system: M17 human neuroblastoma cells; assay: Neurite outgrowth assay in human M17 neuroblastoma cells; format: cell-based; settings: MAP-2 immunofluorescence
Procedure: M17 human neuroblastoma cells were cultured in 1:1 ratio of EMEM and Ham's F12 with 1×NEAA and 10% FBS. The culture media contained 1×PSN antibiotic and was exchanged every other day, and the cells were passed in log phase near confluence.
as §1

[3] = system: Dorsal Root Ganglion (DRG); assay: Dorsal Root Ganglion (DRG) culture neurite outgrowth; format: cell-based, rat; settings: neurite outgrowth from DRG of newborn or 1-day-old CD rats; test compound 50-250 nM; examined on days 1-5
Procedure: DRG were dissected from newborn or 1-day-old CD rats and placed into PBS on ice. After rinsing twice with sterile plating medium, DRG were transferred to empty wells of a 6-well plate coated with polyornithine/laminin (Becton Dickinson Labware) using #7 curved forceps. Three ml/well of plating medium were then added very gently, so as not to disturb the DRG plating medium is Leibovitz's L-15 medium (Gibco), plus 0.6% glucose, 33 mM KCl, 10% FCS, 10 mM Hepes and penicillin/streptomycin/glutamine. After overnight incubation at about 37° C. in 5% CO2, this medium was replaced with 3 mL/well of assay medium [Leibovitz's L-15 medium plus 0.6% glucose, 1% FCS, 1% N-2 supplement (Gibco), 10 μM ara-C, 10 mM Hepes, and penicillin/streptomycin/glutamine] containing either vehicle (DMSO, 1/200,000), positive control (2-4 ng/mL NGF) or test compound (50-250 nM). All media were prepared fresh daily. DRG were microscopically examined for neurite outgrowth on days 1-5.

Row | Structure (SMILES) | Rat Hippocampal Cell Response [1] | M17 Cell Response [2] | DRG [3]
1 | O=C1[C@@H]2CSCN2C(=O)C(c2cccs2)=NN1CCC(c1ccccc1)c1ccccc1 [(6), 1H,7H-thiazolo[4,3-d][1,2,5]triazepine-1,5(2H)-dione, 2-(3,3-diphenylpropyl)-9,9a-dihydro-4-(2-thienyl)-, (9aR)-] | 105% of DMSO-treated control | <100% of DMSO-treated control | –
2 | CCC(C)(C)C1=NN(CCCc2ccccc2)C(=O)[C@@H]2CCCN2C1=O [(2), 1H-pyrrolo[2,1-d][1,2,5]triazepine-1,5(2H)-dione, 4-(1,1-dimethylpropyl)-7,8,9,9a-tetrahydro-2-(3-phenylpropyl)-, (9aS)-] | <100% of DMSO-treated control | <100% of DMSO-treated control | –
3 | CCC(C)(C)C1=NNC(=O)[C@@H]2CCCN2C1=O [(1), 1H-pyrrolo[2,1-d][1,2,5]triazepine-1,5(2H)-dione, 4-(1,1-dimethylpropyl)-7,8,9,9a-tetrahydro-, (9aS)-] | 123% of DMSO-treated control | 115% of DMSO-treated control | + (An experiment was considered positive (+) if the instant compound induced neurites of ≧1 diameter of the DRG)
4 | CCC(C)(C)C1=NN(CCCc2cccnc2)C(=O)[C@@H]2CCCN2C1=O [(3), 1H-pyrrolo[2,1-d][1,2,5]triazepine-1.5(2H)-dione, 4-(1,1-dimethylpropyl)-7,8,9,9a-tetrahydro-2-[3-(3-pyridinyl)propyl]-, (9aS)-] | 145% of DMSO-treated control | <100% of DMSO-treated control | –
5 | O=C1NN=C(c2cccs2)C(=O)N2CSC[C@@H]12 [(5), 1H,7H-thiazolo[4,3-d][1,2,5]triazepine-1,5(2H)-dione, 9,9a-dihydro-4-(2-thienyl)-, (9aR)-] | 105% of DMSO-treated control | <100% of DMSO-treated control | –
6 | CCC(C)(C)C1=NNC(=O)C2CCCCN2C1=O (stereo not shown) [(4)] | 140% of DMSO-treated control | <100% of DMSO-treated control | –

— patent US6821993B1, “Triazepine derivatives as neurotrophic agents” (Ortho-McNeil Pharmaceutical, Inc., priority 2001, dated 2004)
